In assay [1] the target is T1, AR (L702H) in LNCaP cells (Homo sapiens, UniProt P10275, L702H/T878A).
T1 construct: engineered to introduce the mutation L702H into the AR gene using CRISPR/Cas9; endogenous in cells; host or cells: LNCaP cells edited by CRISPR/Cas9 at the AR gene
As to the kind of experiment: LNCaP Androgen Receptor L702H Imaging Assay (LNCaP cells engineered by CRISPR/Cas9). To be noted: LNCaP cells with AR L702H mutation, 24 h incubation; for DC50: concentration giving 50% of maximum degradation of AR (L702H) per curve fit; for Dmax: LNCaP, maximum degradation observed, normalized as % of positive control. The format is cell-based. The gist of the method: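 CRISPR-engineered LNCaP cells carrying AR L702H were treated 24 h at 37 °C with a 12-point compound dose response (0.3% DMSO), then fixed and immunostained for AR with DRAQ5 nuclear counterstain. Nuclear AR was quantified by imaging, normalized to positive control; DC50 and Dmax came from Hill or bell-shaped fits.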

The target in assay [2] is T2, AR (AR-full length) in LNCaP cells (Homo sapiens, UniProt P10275, T878A).
T2 construct: the prostate cancer cell line LNCaP (expressing AR-full length); endogenous in cells; host or cells: LNCaP
T2 sequence (P10275 whole entry T878A): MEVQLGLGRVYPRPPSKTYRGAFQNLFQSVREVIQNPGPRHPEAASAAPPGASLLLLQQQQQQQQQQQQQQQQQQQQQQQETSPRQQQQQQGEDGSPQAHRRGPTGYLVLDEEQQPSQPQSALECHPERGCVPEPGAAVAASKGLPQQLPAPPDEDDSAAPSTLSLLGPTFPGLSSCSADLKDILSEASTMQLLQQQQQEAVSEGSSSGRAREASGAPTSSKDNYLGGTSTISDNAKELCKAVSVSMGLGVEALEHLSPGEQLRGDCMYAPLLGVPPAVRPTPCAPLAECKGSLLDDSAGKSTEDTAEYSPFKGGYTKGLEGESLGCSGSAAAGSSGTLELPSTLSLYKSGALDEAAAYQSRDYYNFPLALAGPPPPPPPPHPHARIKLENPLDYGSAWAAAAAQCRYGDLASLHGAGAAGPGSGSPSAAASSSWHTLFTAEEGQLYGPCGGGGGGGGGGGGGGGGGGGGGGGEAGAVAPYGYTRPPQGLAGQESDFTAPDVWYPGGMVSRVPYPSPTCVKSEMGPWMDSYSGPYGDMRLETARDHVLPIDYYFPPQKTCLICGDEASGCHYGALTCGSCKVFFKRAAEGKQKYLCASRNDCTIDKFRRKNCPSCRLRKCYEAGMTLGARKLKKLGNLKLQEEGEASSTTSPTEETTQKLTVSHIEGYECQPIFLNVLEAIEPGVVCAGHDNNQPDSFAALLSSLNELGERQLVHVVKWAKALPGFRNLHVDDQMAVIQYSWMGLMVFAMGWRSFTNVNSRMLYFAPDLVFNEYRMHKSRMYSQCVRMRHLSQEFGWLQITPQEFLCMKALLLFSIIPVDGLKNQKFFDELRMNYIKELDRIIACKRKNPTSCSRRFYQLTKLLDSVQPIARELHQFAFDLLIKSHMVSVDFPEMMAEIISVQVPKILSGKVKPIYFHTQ
T2 sequence (Q96SW2 whole entry partner): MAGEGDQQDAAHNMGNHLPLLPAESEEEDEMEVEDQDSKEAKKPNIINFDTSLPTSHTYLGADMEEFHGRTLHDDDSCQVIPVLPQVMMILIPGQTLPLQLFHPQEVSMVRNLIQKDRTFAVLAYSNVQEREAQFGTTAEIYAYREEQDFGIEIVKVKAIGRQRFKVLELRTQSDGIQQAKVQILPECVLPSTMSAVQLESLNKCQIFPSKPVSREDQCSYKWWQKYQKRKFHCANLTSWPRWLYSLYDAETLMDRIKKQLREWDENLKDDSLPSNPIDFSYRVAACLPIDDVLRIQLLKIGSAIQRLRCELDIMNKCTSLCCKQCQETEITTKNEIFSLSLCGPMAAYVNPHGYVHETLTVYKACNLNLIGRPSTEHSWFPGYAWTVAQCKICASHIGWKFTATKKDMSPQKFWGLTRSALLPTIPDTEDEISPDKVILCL
As to the kind of experiment: LNCaP Androgen Receptor Imaging Assay (immunofluorescence of endogenous nuclear AR). The settings on record: 24 h incubation; for DC50: concentration giving 50% of maximum degradation of AR per curve fit, single experiment or average of two or more; for Dmax: LNCaP, maximum degradation observed, normalized as % of positive control (prior art AR PROTAC at 3 μM). In kind it is cell-based. The gist of the method:
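LNCaP cells (12,000/well) received a 12-point compound dose series (0.3% DMSO) for 24 h at 37° C., then were PFA-fixed and stained for AR (AR441) and nuclei (DRAQ5). Nuclear AR was quantified by imaging, normalized to a 3 μM AR PROTAC control; DC50 and Dmax came from Hill/bell curve fits.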

One may read the DC50 as the midpoint of the concentration-degradation curve. A lower DC50 goes with a more potent degrader. In general, Dmax refers to the greatest extent of degradation seen.

T1 sequence (P10275 whole entry L702H/T878A): as the sequence (P10275 whole entry T878A) above, with L702H counted along it
T1 sequence (Q96SW2 whole entry partner): as the sequence (Q96SW2 whole entry partner) above

As to `COc1nc(N2CCN(CCC3CCN(c4ccc(C5CCN(c6ccc(Cl)c7c(C#N)c[nH]c67)CC5)cc4)CC3)CC2)cc2c1C(=O)N(C1CCC(=O)NC1=O)C2` (centres unmarked) [Example 87, 4-Chloro-7-(4-{4-[4-(2-{4-[2-(2,6-dioxopiperidin-3-yl)-4-methoxy-3-oxo-2,3-dihydro-1H-pyrrolo[3,4-c]pyridin-6-yl]piperazin-1-yl}ethyl)piperidin-1-yl]phenyl}piperidin-1-yl)-1H-indole-3-carbonitrile], in assay [1], it took 8 nM to reach half-maximal degradation (DC50) and the Dmax was 94%. In addition, in assay [2], the DC50 came to 5 nM and the Dmax was 95%.
Taken in the same sequence, the figures for `COc1nc(N2CCN(CCCC3CCN(c4ccc(C5CCN(c6ccc(Cl)c7c(C#N)c[nH]c67)CC5)cc4)CC3)CC2)cc2c1C(=O)N(C1CCC(=O)NC1=O)C2` (centres unmarked) [Example 88, 4-Chloro-7-(4-{4-[4-(3-{4-[2-(2,6-dioxopiperidin-3-yl)-4-methoxy-3-oxo-2,3-dihydro-1H-pyrrolo[3,4-c]pyridin-6-yl]piperazin-1-yl}propyl)piperidin-1-yl]phenyl}piperidin-1-yl)-1H-indole-3-carbonitrile] were 21 nM, 99%, 13 nM and 96%.
For `N#Cc1c[nH]c2c(N3CCC(c4ccc(N5CCC(CN6CCC(n7ccc8cc(N9CCC(=O)NC9=O)ccc87)CC6)CC5)cc4)CC3)ccc(F)c12` [Example 89, 7-(4-{4-[4-({4-[5-(2,4-Dioxo-1,3-diazinan-1-yl)-1H-indol-1-yl]piperidin-1-yl}methyl)piperidin-1-yl]phenyl}piperidin-1-yl)-4-fluoro-1H-indole-3-carbonitrile] the same measures were 56 nM, 97%, 421 nM and 70%.
Taken in the same sequence, the figures for `N#Cc1c[nH]c2c(N3CCC(c4ccc(N5CCC(CN6CCC(n7ccc8cc(N9CCC(=O)NC9=O)ccc87)CC6)CC5)cc4)CC3)ccc(Cl)c12` [Example 90, 4-Chloro-7-(4-{4-[4-({4-[5-(2,4-dioxo-1,3-diazinan-1-yl)-1H-indol-1-yl]piperidin-1-yl}methyl)piperidin-1-yl]phenyl}piperidin-1-yl)-1H-indole-3-carbonitrile] were 164 nM, 101%, 281 nM and 87%.
In turn, `Cc1ccc(N2CCN(c3ccc(OCCCCN4CCN(c5ccc6c(c5)CN(C5CCC(=O)NC5=O)C6=O)CC4)cc3)CC2)c2[nH]cc(C#N)c12` (centres unmarked) [Example 95, 7-{4-[4-(4-{4-[2-(2,6-Dioxopiperidin-3-yl)-1-oxo-2,3-dihydro-1H-isoindol-5-yl]piperazin-1-yl}butoxy)phenyl]piperazin-1-yl}-4-methyl-1H-indole-3-carbonitrile] registered a DC50 in assay [1] greater than 3000 nM. Further, in assay [2], the DC50 was found to be 10 nM and the Dmax came to 54%.
In the case of `N#Cc1c[nH]c2c(N3CCC(c4ccc(C(=O)N5CCC(CN6CCN(c7cc8c(cc7F)C(=O)N(C7CCC(=O)NC7=O)C8=O)CC6)CC5)cc4)CC3)ccc(Cl)c12` (centres unmarked) [Example 100, 4-Chloro-7-(4-{4-[4-({4-[2-(2,6-dioxopiperidin-3-yl)-6-fluoro-1,3-dioxo-2,3-dihydro-1H-isoindol-5-yl]piperazin-1-yl}methyl)piperidine-1-carbonyl]phenyl}piperidin-1-yl)-1H-indole-3-carbonitrile], in assay [1], the DC50 came out at 449 nM and the Dmax worked out at 89%. Further, in assay [2], the DC50 stood at 29 nM and the Dmax is 101%.
Taken in the same sequence, the figures for `N#Cc1c[nH]c2c(N3CCC(c4ccc(OC5CCN(CC6CCN(c7ccc8c(c7)CN(C7CCC(=O)NC7=O)C8=O)CC6)CC5)cc4)CC3)ccc(F)c12` (centres unmarked) [Example 101, 7-[4-(4-{[1-({1-[2-(2,6-Dioxopiperidin-3-yl)-1-oxo-2,3-dihydro-1H-isoindol-5-yl]piperidin-4-yl}methyl)piperidin-4-yl]oxy}phenyl)piperidin-1-yl]-4-fluoro-1H-indole-3-carbonitrile] were 15 nM, 87%, 6 nM and 97%.
Take `Cc1cc(N2CCC(=O)NC2=O)cc2ccn(C3CCN(CC4CCN(c5ccc(C6CCN(c7ccc(Cl)c8c(C#N)c[nH]c78)CC6)cc5)CC4)CC3)c12` [Example 102, 4-Chloro-7-(4-{4-[4-({4-[5-(2,4-dioxo-1,3-diazinan-1-yl)-7-methyl-1H-indol-1-yl]piperidin-1-yl}methyl)piperidin-1-yl]phenyl}piperidin-1-yl)-1H-indole-3-carbonitrile]: in assay [1], the DC50 was 44 nM and the Dmax came to 106%. In addition, in assay [2], the 50% degradation concentration (DC50) amounted to 52 nM and the Dmax was determined as 86%.
For `Cn1c(C2CCN(CC3CCN(c4ccc(C5CCN(c6ccc(Cl)c7c(C#N)c[nH]c67)CC5)cc4)CC3)CC2)cc2ncc(N3CCC(=O)NC3=O)cc21` [Example 103, 4-Chloro-7-(4-{4-[4-({4-[6-(2,4-dioxo-1,3-diazinan-1-yl)-1-methyl-1H-pyrrolo[3,2-b]pyridin-2-yl]piperidin-1-yl}methyl)piperidin-1-yl]phenyl}piperidin-1-yl)-1H-indole-3-carbonitrile] the same measures were 7 nM, 107%, 8 nM and 85%.
For `N#Cc1c[nH]c2c(N3CCC[C@@H](c4ccc(N5CCC(CN6CCN(c7ccc(C(=O)NC8CCC(=O)NC8=O)c(F)c7)CC6)CC5)cc4)C3)ccc(Cl)c12` (stereo partly drawn) [Example 104, 4-{4-[(1-{4-[(3S)-1-(4-chloro-3-cyano-1H-indol-7-yl)piperidin-3-yl]phenyl}piperidin-4-yl)methyl]piperazin-1-yl}-N-(2,6-dioxopiperidin-3-yl)-2-fluorobenzamide] the same measures were 46 nM, 97%, 13 nM and 98%.
Consider `N#Cc1c[nH]c2c(N3CCC(c4ccc(N5CCC(CN6CCN(c7ccc(C(=O)NC8CCC(=O)NC8=O)c(F)c7)CC6)CC5)cc4)CC3)ccc(F)c12` (centres unmarked) [Example 105, 4-{4-[(1-{4-[1-(3-Cyano-4-fluoro-1H-indol-7-yl)piperidin-4-yl]phenyl}piperidin-4-yl)methyl]piperazin-1-yl}-N-(2,6-dioxopiperidin-3-yl)-2-fluorobenzamide], for which, in assay [1], the DC50 was determined as 49 nM and the Dmax turned out to be 95%. In addition, in assay [2], the 50% degradation concentration (DC50) was 61 nM and the Dmax was 89%.
For the compound `N#Cc1c[nH]c2c(N3CCC(c4ccc(N5CCC(CN6CCN(c7ccc(C(=O)NC8CCC(=O)NC8=O)c(F)c7)CC6)CC5)cc4)CC3)ccc(Cl)c12` (centres unmarked) [Example 106, 4-{4-[(1-{4-[1-(4-Chloro-3-cyano-1H-indol-7-yl)piperidin-4-yl]phenyl}piperidin-4-yl)methyl]piperazin-1-yl}-N-(2,6-dioxopiperidin-3-yl)-2-fluorobenzamide], in assay [1], the half-maximal degradation concentration (DC50) was 50 nM and the Dmax is 93%. Moreover, in assay [2], the half-maximal degradation concentration (DC50) stood at 22 nM and the Dmax is 97%.
For `N#Cc1c[nH]c2c(N3CCC(c4ccc(CN5CCN(CC6CCN(c7ccc8c(c7)CN(C7CCC(=O)NC7=O)C8=O)CC6)CC5)cc4)CC3)ccc(F)c12` (centres unmarked) [Example 107, 7-[4-(4-{[4-({1-[2-(2,6-Dioxopiperidin-3-yl)-1-oxo-2,3-dihydro-1H-isoindol-5-yl]piperidin-4-yl}methyl)piperazin-1-yl]methyl}phenyl)piperidin-1-yl]-4-fluoro-1H-indole-3-carbonitrile] the same measures were 300 nM, 107%, 6 nM and 93%.
For `N#Cc1c[nH]c2c(N3CCC(c4ccc(N5CCC(CN6CCC(n7ccc8c(N9CCC(=O)NC9=O)cccc87)CC6)CC5)nc4)CC3)ccc(Cl)c12` [Example 108, 4-Chloro-7-(4-{6-[4-({4-[4-(2,4-dioxo-1,3-diazinan-1-yl)-1H-indol-1-yl]piperidin-1-yl}methyl)piperidin-1-yl]pyridin-3-yl}piperidin-1-yl)-1H-indole-3-carbonitrile], in assay [1], the DC50 was 34 nM and the Dmax came out at 102%. Moreover, in assay [2], the DC50 amounted to 7 nM and the Dmax was 104%.
Taken in the same sequence, the figures for `N#Cc1c[nH]c2c(N3CCC(c4ccc(N5CCC(CN6CCN(c7ccc8c(c7)CN(C7CCC(=O)NC7=O)C8=O)CC6)CC5)nc4)CC3)ccc(Cl)c12` (centres unmarked) [Example 109, 4-Chloro-7-(4-{6-[4-({4-[2-(2,6-dioxopiperidin-3-yl)-1-oxo-2,3-dihydro-1H-isoindol-5-yl]piperazin-1-yl}methyl)piperidin-1-yl]pyridin-3-yl}piperidin-1-yl)-1H-indole-3-carbonitrile] were 10 nM, 96%, 5 nM and 97%.

These data come from patent publication US20260274832A1, “COMPOUNDS AND THEIR USE IN TREATING CANCER” (ASTRAZENECA AB, priority 2023, published 2026).
